Measurements taken from ChEMBL document CHEMBL3045059, “Efficacy of ketoenols on insecticide resistant field populations of two-spotted spider mite Tetranychus urticae and sweet potato whitefly Bemisia tabaci from Greece” (2012).
≈ marks a conversion by molar mass, not a printed value.

Legend:
Type in all cases: functional
Tetranychus urticae [1] = assay: Resistance ratio, ratio of LC50 for larvae of Tetranychus urticae (two-spotted spider mite) field population TU4 to LC50 for larvae of Tetranychus urticae laboratory strain SAMB measured after 6 days
Tetranychus urticae [2] = assay: Acaricidal activity against larvae of Tetranychus urticae (two-spotted spider mite) greenhouse population TU9 in bean leaves assessed as mortality applied at 1 bar pressure measured after 6 days
Tetranychus urticae [3] = assay: Acaricidal activity against larvae of Tetranychus urticae (two-spotted spider mite) greenhouse population TU3 in bean leaves assessed as mortality applied at 1 bar pressure measured after 6 days
Tetranychus urticae [4] = assay: Acaricidal activity against larvae of Tetranychus urticae (two-spotted spider mite) greenhouse population TU7 in bean leaves assessed as mortality applied at 1 bar pressure measured after 6 days
Tetranychus urticae [5] = assay: Resistance ratio, ratio of LC50 for larvae of Tetranychus urticae (two-spotted spider mite) greenhouse population TU3 to LC50 for larvae of Tetranychus urticae laboratory strain SAMB measured after 6 days
Tetranychus urticae [6] = assay: Acaricidal activity against larvae of Tetranychus urticae (two-spotted spider mite) greenhouse population TU11 in bean leaves assessed as mortality applied at 1 bar pressure measured after 6 days
Tetranychus urticae [7] = assay: Acaricidal activity against larvae of Tetranychus urticae (two-spotted spider mite) field population TU6 in bean leaves assessed as mortality applied at 1 bar pressure measured after 6 days
Tetranychus urticae [8] = assay: Resistance ratio, ratio of LC50 for larvae of Tetranychus urticae (two-spotted spider mite) greenhouse population TU7 to LC50 for larvae of Tetranychus urticae laboratory strain SAMB measured after 6 days
Tetranychus urticae [9] = assay: Resistance ratio, ratio of LC50 for larvae of Tetranychus urticae (two-spotted spider mite) greenhouse population TU1 to LC50 for larvae of Tetranychus urticae laboratory strain SAMB measured after 6 days
Tetranychus urticae [10] = assay: Acaricidal activity against larvae of Tetranychus urticae (two-spotted spider mite) laboratory strain GSS in bean leaves assessed as mortality applied at 1 bar pressure measured after 6 days
Tetranychus urticae [11] = assay: Resistance ratio, ratio of LC50 for larvae of Tetranychus urticae (two-spotted spider mite) greenhouse population TU9 to LC50 for larvae of Tetranychus urticae laboratory strain SAMB measured after 6 days
Tetranychus urticae [12] = assay: Acaricidal activity against larvae of Tetranychus urticae (two-spotted spider mite) laboratory strain SAMB in bean leaves assessed as mortality applied at 1 bar pressure measured after 6 days
Tetranychus urticae [13] = assay: Acaricidal activity against larvae of Tetranychus urticae (two-spotted spider mite) greenhouse population TU1 in bean leaves assessed as mortality applied at 1 bar pressure measured after 6 days
Tetranychus urticae [14] = assay: Resistance ratio, ratio of LC50 for larvae of Tetranychus urticae (two-spotted spider mite) laboratory strain GSS to LC50 for larvae of Tetranychus urticae laboratory strain SAMB measured after 6 days
Tetranychus urticae [15] = assay: Resistance ratio, ratio of LC50 for larvae of Tetranychus urticae (two-spotted spider mite) field population TU12 to LC50 for larvae of Tetranychus urticae laboratory strain SAMB measured after 6 days
Tetranychus urticae [16] = assay: Acaricidal activity against larvae of Tetranychus urticae (two-spotted spider mite) greenhouse population TU5 in bean leaves assessed as mortality applied at 1 bar pressure measured after 6 days
Tetranychus urticae [17] = assay: Resistance ratio, ratio of LC50 for larvae of Tetranychus urticae (two-spotted spider mite) mixed strain ALL-14 selected with spirodiclofen for 14 generations to LC50 for larvae of Tetranychus urticae (two-spotted spider mite) laboratory strain SAMB measured after 6 days
Tetranychus urticae [18] = assay: Acaricidal activity against larvae of Tetranychus urticae (two-spotted spider mite) field population TU4 in bean leaves assessed as mortality applied at 1 bar pressure measured after 6 days
Tetranychus urticae [19] = assay: Resistance ratio, ratio of LC50 for larvae of Tetranychus urticae (two-spotted spider mite) field population TU6 to LC50 for larvae of Tetranychus urticae laboratory strain SAMB measured after 6 days
Tetranychus urticae [20] = assay: Acaricidal activity against larvae of Tetranychus urticae (two-spotted spider mite) field population TU12 in bean leaves assessed as mortality applied at 1 bar pressure measured after 6 days
Tetranychus urticae [21] = assay: Acaricidal activity against larvae of Tetranychus urticae (two-spotted spider mite) mixed strain ALL-14 selected with spirodiclofen for 14 generations in bean leaves assessed as mortality by applying constant selection pressure under laboratory conditions
Tetranychus urticae [22] = assay: Resistance ratio, ratio of LC50 for larvae of Tetranychus urticae (two-spotted spider mite) greenhouse population TU5 to LC50 for larvae of Tetranychus urticae laboratory strain SAMB measured after 6 days
Tetranychus urticae [23] = assay: Resistance ratio, ratio of LC50 for larvae of Tetranychus urticae (two-spotted spider mite) greenhouse population TU11 to LC50 for larvae of Tetranychus urticae laboratory strain SAMB measured after 6 days
Tetranychus urticae [24] = assay: Resistance ratio, ratio of LC50 for larvae of Tetranychus urticae (two-spotted spider mite) field population TU2 to LC50 for larvae of Tetranychus urticae laboratory strain SAMB measured after 6 days
Tetranychus urticae [25] = assay: Acaricidal activity against larvae of Tetranychus urticae (two-spotted spider mite) field population TU2 in bean leaves assessed as mortality applied at 1 bar pressure measured after 6 days

CCC(C)(C)C(=O)OC1=C(c2ccc(Cl)cc2Cl)C(=O)OC12CCCCC2 [SPIRODICLOFEN]
RatioLC50 (Tetranychus urticae [1]): 1.1 | LC95 (Tetranychus urticae [2]): 43.4 mg/L (≈ 106 µM) | LC50 (Tetranychus urticae [2]; Tetranychus urticae, TU9, 144 h): 5 µg/mL (≈ 12.2 µM) | LC95 (Tetranychus urticae [3]): 5 mg/L (≈ 12.2 µM) | LC50 (Tetranychus urticae [3]; Tetranychus urticae, TU3, 144 h): 1.6 µg/mL (≈ 3.89 µM) | LC95 (Tetranychus urticae [4]): 87.7 mg/L (≈ 213 µM) | LC50 (Tetranychus urticae [4]; Tetranychus urticae, TU7, 144 h): 27 µg/mL (≈ 65.6 µM) | RatioLC50 (Tetranychus urticae [5]): 0.7 | LC95 (Tetranychus urticae [6]): 46.1 mg/L (≈ 112 µM) | LC50 (Tetranychus urticae [6]; Tetranychus urticae, TU11, 144 h): 8.7 µg/mL (≈ 21.2 µM) | LC95 (Tetranychus urticae [7]): 2.3 mg/L (≈ 5.59 µM) | LC50 (Tetranychus urticae [7]; Tetranychus urticae, TU6, 144 h): 0.5 µg/mL (≈ 1.22 µM) | RatioLC50 (Tetranychus urticae [8]): 12 | RatioLC50 (Tetranychus urticae [9]): 1.2 | LC95 (Tetranychus urticae [10]): 4 mg/L (≈ 9.72 µM) | LC50 (Tetranychus urticae [10]; Tetranychus urticae, GSS, 144 h): 1.4 µg/mL (≈ 3.4 µM) | RatioLC50 (Tetranychus urticae [11]): 2.2 | LC95 (Tetranychus urticae [12]): 7.8 mg/L (≈ 19 µM) | LC50 (Tetranychus urticae [12]; Tetranychus urticae, SAMB, 144 h): 2.2 µg/mL (≈ 5.35 µM) | LC95 (Tetranychus urticae [13]): 17.9 mg/L (≈ 43.5 µM) | LC50 (Tetranychus urticae [13]; Tetranychus urticae, TU1, 144 h): 2.7 µg/mL (≈ 6.56 µM) | RatioLC50 (Tetranychus urticae [14]): 0.6 | RatioLC50 (Tetranychus urticae [15]): 2.5 | LC95 (Tetranychus urticae [16]): 4.6 mg/L (≈ 11.2 µM) | LC50 (Tetranychus urticae [16]; Tetranychus urticae, TU5, 144 h): 2.5 µg/mL (≈ 6.08 µM) | RatioLC50 (Tetranychus urticae [17]): 4.3 | LC95 (Tetranychus urticae [18]): 8 mg/L (≈ 19.4 µM) | LC50 (Tetranychus urticae [18]; Tetranychus urticae, TU4, 144 h): 2.5 µg/mL (≈ 6.08 µM) | RatioLC50 (Tetranychus urticae [19]): 0.2 | LC95 (Tetranychus urticae [20]): 23.8 mg/L (≈ 57.9 µM) | LC50 (Tetranychus urticae [20]; Tetranychus urticae, TU12, 144 h): 5.5 µg/mL (≈ 13.4 µM) | LC95 (Tetranychus urticae [21]): 32.1 mg/L (≈ 78 µM) | LC50 (Tetranychus urticae [21]; Tetranychus urticae, mixed strain ALL-14): 9.5 µg/mL (≈ 23.1 µM) | RatioLC50 (Tetranychus urticae [22]): 1.1 | RatioLC50 (Tetranychus urticae [23]): 3.9 | RatioLC50 (Tetranychus urticae [24]): 1.4 | LC95 (Tetranychus urticae [25]): 18.6 mg/L (≈ 45.2 µM) | LC50 (Tetranychus urticae [25]; Tetranychus urticae, TU2, 144 h): 3.2 µg/mL (≈ 7.78 µM)
